Assay results as given in ChEMBL document CHEMBL3797178, “Synthesis, antimycobacterial and antibacterial activity of 1-(6-amino-3,5-difluoropyridin-2-yl)fluoroquinolone derivatives containing an oxime functional moiety” (2016).
In brackets after ≈: the same amount, converted by molar mass.

What was measured:
Type in all cases: functional
[1] = test system: Staphylococcus aureus; experiment: Antibacterial activity against methicillin-sensitive Staphylococcus aureus 14-2 after 18 to 24 hrs by CLSI M100-S11 method
[2] = test system: Enterococcus faecalis; experiment: Antibacterial activity against Enterococcus faecalis 14-1 after 18 to 24 hrs by CLSI M100-S11 method
[3] = test system: Pseudomonas aeruginosa; experiment: Antibacterial activity against Pseudomonas aeruginosa ATCC 27853 after 18 to 24 hrs by CLSI M100-S11 method
[4] = test system: Pseudomonas aeruginosa; experiment: Antibacterial activity against Pseudomonas aeruginosa 14-9 after 18 to 24 hrs by CLSI M100-S11 method
[5] = test system: Staphylococcus aureus; experiment: Antibacterial activity against methicillin-sensitive Staphylococcus aureus 14-3 after 18 to 24 hrs by CLSI M100-S11 method
[6] = test system: Staphylococcus epidermidis; experiment: Antibacterial activity against methicillin-sensitive Staphylococcus epidermidis 14-2 after 18 to 24 hrs by CLSI M100-S11 method
[7] = test system: Escherichia coli; experiment: Antibacterial activity against Escherichia coli 14-2 after 18 to 24 hrs by CLSI M100-S11 method
[8] = test system: Escherichia coli; experiment: Antibacterial activity against extended-spectrum beta-lactamase-producing Escherichia coli 14-1 after 18 to 24 hrs by CLSI M100-S11 method
[9] = test system: Staphylococcus epidermidis; experiment: Antibacterial activity against methicillin-sensitive Staphylococcus epidermidis 14-4 after 18 to 24 hrs by CLSI M100-S11 method
[10] = test system: Klebsiella pneumoniae; experiment: Antibacterial activity against extended-spectrum beta-lactamase-producing Klebsiella pneumoniae 14-17 after 18 to 24 hrs by CLSI M100-S11 method
[11] = test system: Klebsiella pneumoniae; experiment: Antibacterial activity against Klebsiella pneumoniae 14-4 after 18 to 24 hrs by CLSI M100-S11 method
[12] = test system: Klebsiella pneumoniae; experiment: Antibacterial activity against extended-spectrum beta-lactamase-producing Klebsiella pneumoniae 14-19 after 18 to 24 hrs by CLSI M100-S11 method
[13] = test system: Escherichia coli; experiment: Antibacterial activity against Escherichia coli 14-1 after 18 to 24 hrs by CLSI M100-S11 method
[14] = test system: Pseudomonas aeruginosa; experiment: Antibacterial activity against Pseudomonas aeruginosa 14-14 after 18 to 24 hrs by CLSI M100-S11 method
[15] = test system: Klebsiella pneumoniae; experiment: Antibacterial activity against extended-spectrum beta-lactamase-producing Klebsiella pneumoniae 14-18 after 18 to 24 hrs by CLSI M100-S11 method
[16] = test system: Staphylococcus aureus; experiment: Antibacterial activity against methicillin-resistant Staphylococcus aureus 14-5 after 18 to 24 hrs by CLSI M100-S11 method
[17] = test system: Pseudomonas aeruginosa; experiment: Antibacterial activity against Pseudomonas aeruginosa 14-19 after 18 to 24 hrs by CLSI M100-S11 method
[18] = test system: Enterococcus faecalis; experiment: Antibacterial activity against Enterococcus faecalis 14-3 after 18 to 24 hrs by CLSI M100-S11 method
[19] = test system: Enterococcus faecium; experiment: Antibacterial activity against Enterococcus faecium 14-1 after 18 to 24 hrs by CLSI M100-S11 method
[20] = test system: Klebsiella pneumoniae; experiment: Antibacterial activity against Klebsiella pneumoniae 14-1 after 18 to 24 hrs by CLSI M100-S11 method
[21] = test system: Staphylococcus aureus; experiment: Antibacterial activity against methicillin-sensitive Staphylococcus aureus 14-4 after 18 to 24 hrs by CLSI M100-S11 method
[22] = test system: Pseudomonas aeruginosa; experiment: Antibacterial activity against Pseudomonas aeruginosa 14-15 after 18 to 24 hrs by CLSI M100-S11 method
[23] = test system: Staphylococcus epidermidis; experiment: Antibacterial activity against methicillin-resistant Staphylococcus epidermidis 14-37 after 18 to 24 hrs by CLSI M100-S11 method
[24] = test system: Staphylococcus epidermidis; experiment: Antibacterial activity against methicillin-sensitive Staphylococcus epidermidis 14-6 after 18 to 24 hrs by CLSI M100-S11 method
[25] = test system: Klebsiella pneumoniae; experiment: Antibacterial activity against Klebsiella pneumoniae 14-2 after 18 to 24 hrs by CLSI M100-S11 method
[26] = test system: Staphylococcus aureus; experiment: Antibacterial activity against methicillin-resistant Staphylococcus aureus 14-4 after 18 to 24 hrs by CLSI M100-S11 method
[27] = test system: Enterococcus faecalis; experiment: Antibacterial activity against Enterococcus faecalis 14-2 after 18 to 24 hrs by CLSI M100-S11 method
[28] = test system: Enterococcus faecium; experiment: Antibacterial activity against Enterococcus faecium 14-2 after 18 to 24 hrs by CLSI M100-S11 method
[29] = test system: Staphylococcus aureus; experiment: Antibacterial activity against Staphylococcus aureus CMCC 26003 after 18 to 24 hrs by CLSI M100-S11 method
[30] = test system: Escherichia coli; experiment: Antibacterial activity against extended-spectrum beta-lactamase-producing Escherichia coli 14-2 after 18 to 24 hrs by CLSI M100-S11 method
[31] = test system: Streptococcus pneumoniae; experiment: Antibacterial activity against Streptococcus pneumoniae ATCC 19615 after 18 to 24 hrs by CLSI M100-S11 method
[32] = test system: Staphylococcus epidermidis; experiment: Antibacterial activity against methicillin-resistant Staphylococcus epidermidis 14-39 after 18 to 24 hrs by CLSI M100-S11 method
[33] = test system: Pseudomonas aeruginosa; experiment: Antibacterial activity against Pseudomonas aeruginosa 14-16 after 18 to 24 hrs by CLSI M100-S11 method
[34] = test system: Klebsiella pneumoniae; experiment: Antibacterial activity against Klebsiella pneumoniae 14-3 after 18 to 24 hrs by CLSI M100-S11 method
[35] = test system: Staphylococcus epidermidis; experiment: Antibacterial activity against methicillin-resistant Staphylococcus epidermidis 14-22 after 18 to 24 hrs by CLSI M100-S11 method
[36] = test system: Escherichia coli; experiment: Antibacterial activity against Escherichia coli ATCC 25922 after 18 to 24 hrs by CLSI M100-S11 method
[37] = test system: Mycobacterium tuberculosis; experiment: Antimycobacterial activity against Mycobacterium tuberculosis H37Rv ATCC 27294 after 3 days by microplate Alamar Blue assay; conditions: H37Rv ATCC 27294, 72 h

Row | Structure (SMILES) | MIC [1] [mg/L] | MIC [2] [mg/L] | MIC [3] [mg/L] | MIC [4] [mg/L] | MIC [5] [mg/L] | MIC [6] [mg/L] | MIC [7] [mg/L] | MIC [8] [mg/L] | MIC [9] [mg/L] | MIC [10] [mg/L] | MIC [11] [mg/L] | MIC [12] [mg/L] | MIC [13] [mg/L] | MIC [14] [mg/L] | MIC [15] [mg/L] | MIC [16] [mg/L] | MIC [17] [mg/L] | MIC [18] [mg/L] | MIC [19] [mg/L] | MIC [20] [mg/L] | other results
1 | CCO/N=C1\CN(c2nc3c(cc2F)c(=O)c(C(=O)O)cn3-c2nc(N)c(F)cc2F)[C@H]1CN | 4 (≈ 8.38 µM) | > 128 | 16 (≈ 33.5 µM) | 32 (≈ 67 µM) | 8 (≈ 16.8 µM) | > 128 | > 128 | 64 (≈ 134 µM) | 64 (≈ 134 µM) | > 128 | 128 (≈ 268 µM) | > 128 | > 128 | 64 (≈ 134 µM) | 64 (≈ 134 µM) | > 128 | 64 (≈ 134 µM) | > 128 | > 128 | > 128 | MIC [21]: 4 mg/L (≈ 8.38 µM); MIC [22]: 64 mg/L (≈ 134 µM); MIC [23]: > 128 mg/L; MIC [24]: 128 mg/L (≈ 268 µM); MIC [25]: > 128 mg/L; MIC [26]: > 128 mg/L; MIC [27]: > 128 mg/L; MIC [28]: 32 mg/L (≈ 67 µM); MIC [29]: 2 mg/L (≈ 4.19 µM); MIC [30]: > 128 mg/L; MIC [31]: 32 mg/L (≈ 67 µM); MIC [32]: > 129 mg/L; MIC [33]: 64 mg/L (≈ 134 µM); MIC [34]: > 128 mg/L; MIC [35]: > 128 mg/L; MIC [36]: 2 mg/L (≈ 4.19 µM); MIC [37]: > 32 mg/L
2 | CO/N=C1\CN(c2c(F)cc3c(=O)c(C(=O)O)cn(-c4nc(N)c(F)cc4F)c3c2Cl)CC1CN (stereo unspecified) | 0.06 (≈ 0.117 µM) | 16 (≈ 31.3 µM) | 4 (≈ 7.83 µM) | 8 (≈ 15.7 µM) | 0.125 (≈ 0.245 µM) | 64 (≈ 125 µM) | 64 (≈ 125 µM) | 2 (≈ 3.91 µM) | 32 (≈ 62.6 µM) | 32 (≈ 62.6 µM) | 128 (≈ 251 µM) | 128 (≈ 251 µM) | 64 (≈ 125 µM) | 8 (≈ 15.7 µM) | 16 (≈ 31.3 µM) | 128 (≈ 251 µM) | 8 (≈ 15.7 µM) | 32 (≈ 62.6 µM) | > 128 | 64 (≈ 125 µM) | MIC [21]: 0.25 mg/L (≈ 0.489 µM); MIC [22]: 8 mg/L (≈ 15.7 µM); MIC [23]: 64 mg/L (≈ 125 µM); MIC [24]: 64 mg/L (≈ 125 µM); MIC [25]: > 128 mg/L; MIC [26]: 128 mg/L (≈ 251 µM); MIC [27]: 64 mg/L (≈ 125 µM); MIC [28]: 8 mg/L (≈ 15.7 µM); MIC [29]: 0.03 mg/L (≈ 0.0587 µM); MIC [30]: 64 mg/L (≈ 125 µM); MIC [31]: 16 mg/L (≈ 31.3 µM); MIC [32]: 32 mg/L (≈ 62.6 µM); MIC [33]: 8 mg/L (≈ 15.7 µM); MIC [34]: 128 mg/L (≈ 251 µM); MIC [35]: 64 mg/L (≈ 125 µM); MIC [36]: 0.125 mg/L (≈ 0.245 µM); MIC [37]: 30.5 mg/L (≈ 59.7 µM)
3 | CCO/N=C1\CN(c2nc3c(cc2F)c(=O)c(C(=O)O)cn3-c2nc(N)c(F)cc2F)[C@@H]1CN | 32 (≈ 67 µM) | > 128 | 128 (≈ 268 µM) | 128 (≈ 268 µM) | 32 (≈ 67 µM) | > 128 | > 128 | > 128 | > 128 | > 128 | > 128 | > 128 | > 128 | 128 (≈ 268 µM) | > 128 | > 128 | 128 (≈ 268 µM) | > 128 | > 128 | > 128 | MIC [21]: 32 mg/L (≈ 67 µM); MIC [22]: 128 mg/L (≈ 268 µM); MIC [23]: > 128 mg/L; MIC [24]: > 128 mg/L; MIC [25]: > 128 mg/L; MIC [26]: > 128 mg/L; MIC [27]: > 128 mg/L; MIC [28]: 128 mg/L (≈ 268 µM); MIC [29]: 16 mg/L (≈ 33.5 µM); MIC [30]: > 128 mg/L; MIC [31]: 64 mg/L (≈ 134 µM); MIC [32]: > 132 mg/L; MIC [33]: 128 mg/L (≈ 268 µM); MIC [34]: > 128 mg/L; MIC [35]: > 128 mg/L; MIC [36]: 16 mg/L (≈ 33.5 µM); MIC [37]: > 32 mg/L
